The values below come from patent US20220396565A1 (Hoffmann-La Roche Inc., priority 2020, published 2022).

Molecules are shown by their SMILES. Structures can show the parent of a compound that is named as a salt.

In the experiment the test system is Acinetobacter baumannii ATCC17961. In words: Antimicrobial susceptibility testing: 90% growth inhibitory concentration (IC90) determination, Iso-Sensitest broth. The class given is cell-based. As to conditions: Acinetobacter baumannii, ATCC17961, 90% growth inhibitory concentration, Acinetobacter baumannii ATCC17961, Iso-Sensitest broth; read-out: ATCC 17961 IC90. The method, boiled down: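 Growth at OD600 was monitored every 20 min for 16 h at 35±2 °C, with bacteria inoculated at ~5×10^(5) CFU/ml into Iso-Sensitest medium. Compounds were tested as 10-point twofold dilutions (e.g. 10–0.02 μM final). The 90% inhibitory concentration comes from the log-phase growth.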
On to `COc1ccc(-c2cnc(C(=O)Nc3ccc(C(=O)N4C[C@@H]5CN(C(=O)C6CCNCC6)C[C@@H]5C4)c(Cl)c3)n2C)c(F)c1F` [Example 186, N-[4-[(3aR,6aS)-5-(piperidine-4-carbonyl)-1,3,3a,4,6,6a-hexahydropyrrolo[3,4-c]pyrrole-2-carbonyl]-3-chloro-phenyl]-5-(2,3-difluoro-4-methoxy-phenyl)-1-methyl-idazole-2-carboxamide formate], for which the IC90 (usually the concentration at which the effect reaches the 90% level) turned out to be 100 nM.

As to `COc1ccc(-c2cnc(C(=O)Nc3ccc(C(=O)N4CC(NC(=O)C5CCNCC5)C4)c(Cl)c3)n2C)c(F)c1F` [Example 187, N-[1-[2-chloro-4-[[5-(2,3-difluoro-4-methoxy-phenyl)-1-methyl-imidazole-2-carbonyl]amino]benzoyl]azetidin-3-yl]piperidine-4-carboxamide formate], the IC90 was found to be 110 nM.

Regarding `COc1ccc(-c2cnc(C(=O)Nc3ccc(C(=O)N4C[C@@H]5CN(C(=O)[C@@H]6CCNC6)C[C@@H]5C4)c(Cl)c3)n2C)c(F)c1F` [Example 188, N-[4-[(3aR,6aS)-5-[(3R)-pyrrolidine-3-carbonyl]-1,3,3a,4,6,6a-hexahydropyrrolo[3,4-c]pyrrole-2-carbonyl]-3-chloro-phenyl]-5-(2,3-difluoro-4-methoxy-phenyl)-1-methyl-imidazole-2-carboxamide formate], the IC90 amounted to 140 nM.

`COc1ccc(-c2cnc(C(=O)Nc3ccc(C(=O)N4CC(NC(=O)CN(C)C)C4)c(Cl)c3)n2C)c(F)c1F` [Example 189, N-[3-chloro-4-[3-[[2-(dimethylamino)acetyl]amino]azetidine-1-carbonyl]phenyl]-5-(2,3-difluoro-4-methoxy-phenyl)-1-methyl-imidazole-2-carboxamide formate]: the IC90 turned out to be 140 nM.

As for `COc1ccc(-c2cnc(C(=O)Nc3ccc(C(=O)N4C[C@H]5CN(C(=O)CN(C)C)C[C@H]5C4)c(Cl)c3)n2C)c(F)c1F` [Example 190, N-[4-[(3aS,6aR)-2-[2-(dimethylamino)acetyl]-1,3,3a,4,6,6a-hexahydropyrrolo[3,4-c]pyrrole-5-carbonyl]-3-chloro-phenyl]-5-(2,3-difluoro-4-methoxy-phenyl)-1-methyl-imidazole-2-carboxamide formate], the IC90 was determined as 180 nM.

`Cn1c(-c2ccc(F)c(F)c2F)cnc1C(=O)Nc1ccc(C(=O)N2CCN(C(=O)C3CCNCC3)CC2)c(Cl)c1` [Example 191, N-[3-chloro-4-[4-(piperidine-4-carbonyl)piperazine-1-carbonyl]phenyl]-1-methyl-5-(2,3,4-trifluorophenyl)imidazole-2-carboxamide formate]: the IC90 came to 230 nM.

As to `COc1ccc(-c2cnc(C(=O)Nc3ccc(C(=O)N4CCN(C(=O)C5CCNCC5)CC4)c(Cl)c3)n2C)cc1C#N` [Example 192, N-[3-chloro-4-[4-(piperidine-4-carbonyl)piperazine-1-carbonyl]phenyl]-5-(3-cyano-4-methoxy-phenyl)-1-methyl-imidazole-2-carboxamide formate], the IC90 is 460 nM.

Turning to `Cn1c(-c2ccc(F)c(C#N)c2F)cnc1C(=O)Nc1ccc(C(=O)N2CCN(C(=O)C3CCNCC3)CC2)c(Cl)c1` [Example 193, N-[3-chloro-4-[4-(piperidine-4-carbonyl)piperazine-1-carbonyl]phenyl]-5-(3-cyano-2,4-difluoro-phenyl)-1-methyl-imidazole-2-carboxamide formate], the IC90 stood at 2590 nM.

Turning to `COc1ccc(-c2cnc(C(=O)Nc3ccc(C(=O)N4CCN(C(=O)C[C@@H]5CCNC5)CC4)c(Cl)c3)n2C)c(F)c1F` [Example 194, N-[3-chloro-4-[4-[2-[(3S)-pyrrolidin-3-yl]acetyl]piperazine-1-carbonyl]phenyl]-5-(2,3-difluoro-4-methoxy-phenyl)-1-methyl-imidazole-2-carboxamide formate], the IC90 came to 50 nM.
